# According to patent US7750003B2, “Compounds-943” (AstraZeneca AB, priority 2006, dated 2010):
# Molecular target: recombinant mTOR (FLAG-tagged, residues 1362-2549) (Homo sapiens, UniProt P42345)
# Assay: In vitro mTOR kinase assay (Test (a), AlphaScreen)
# Format: biochemical
# Conditions: ATP 20 μM, read-out: Test (a): IC50 versus mTOR kinase
# Procedure: (a) In Vitro mTOR Kinase Assay
# Following expression in the mammalian HEK293 cell line, expressed protein was purified using the FLAG epitope tag using standard purification techniques.
# Aliquots (2 μl) of each compound dilution were placed into a well of a Greiner 384-well low volume (LV) white polystyrene plate (Greiner Bio-one).
# These assay solutions were incubated for 2 hours at room temperature.
# The resultant signals arising from laser light excitation at 680 nm were read using a Packard Envision instrument.
# The phosphorylated biotinylated peptide that is associated with AlphaScreen Streptavidin donor beads forms a complex with the p70 S6 Kinase (T389) 1A5 Monoclonal Antibody that is associated with Alphascreen Protein A acceptor beads. Upon laser light excitation at 680 nm, the donor bead: acceptor bead complex produces a signal that can be measured. Accordingly, the presence of mTOR kinase activity results in an assay signal. In the presence of an mTOR kinase inhibitor, signal strength is reduced.
# mTOR enzyme inhibition for a given test compound was expressed as an IC50 value.
# Chain of recombinant mTOR (FLAG-tagged, residues 1362-2549) (P42345 1362-2549): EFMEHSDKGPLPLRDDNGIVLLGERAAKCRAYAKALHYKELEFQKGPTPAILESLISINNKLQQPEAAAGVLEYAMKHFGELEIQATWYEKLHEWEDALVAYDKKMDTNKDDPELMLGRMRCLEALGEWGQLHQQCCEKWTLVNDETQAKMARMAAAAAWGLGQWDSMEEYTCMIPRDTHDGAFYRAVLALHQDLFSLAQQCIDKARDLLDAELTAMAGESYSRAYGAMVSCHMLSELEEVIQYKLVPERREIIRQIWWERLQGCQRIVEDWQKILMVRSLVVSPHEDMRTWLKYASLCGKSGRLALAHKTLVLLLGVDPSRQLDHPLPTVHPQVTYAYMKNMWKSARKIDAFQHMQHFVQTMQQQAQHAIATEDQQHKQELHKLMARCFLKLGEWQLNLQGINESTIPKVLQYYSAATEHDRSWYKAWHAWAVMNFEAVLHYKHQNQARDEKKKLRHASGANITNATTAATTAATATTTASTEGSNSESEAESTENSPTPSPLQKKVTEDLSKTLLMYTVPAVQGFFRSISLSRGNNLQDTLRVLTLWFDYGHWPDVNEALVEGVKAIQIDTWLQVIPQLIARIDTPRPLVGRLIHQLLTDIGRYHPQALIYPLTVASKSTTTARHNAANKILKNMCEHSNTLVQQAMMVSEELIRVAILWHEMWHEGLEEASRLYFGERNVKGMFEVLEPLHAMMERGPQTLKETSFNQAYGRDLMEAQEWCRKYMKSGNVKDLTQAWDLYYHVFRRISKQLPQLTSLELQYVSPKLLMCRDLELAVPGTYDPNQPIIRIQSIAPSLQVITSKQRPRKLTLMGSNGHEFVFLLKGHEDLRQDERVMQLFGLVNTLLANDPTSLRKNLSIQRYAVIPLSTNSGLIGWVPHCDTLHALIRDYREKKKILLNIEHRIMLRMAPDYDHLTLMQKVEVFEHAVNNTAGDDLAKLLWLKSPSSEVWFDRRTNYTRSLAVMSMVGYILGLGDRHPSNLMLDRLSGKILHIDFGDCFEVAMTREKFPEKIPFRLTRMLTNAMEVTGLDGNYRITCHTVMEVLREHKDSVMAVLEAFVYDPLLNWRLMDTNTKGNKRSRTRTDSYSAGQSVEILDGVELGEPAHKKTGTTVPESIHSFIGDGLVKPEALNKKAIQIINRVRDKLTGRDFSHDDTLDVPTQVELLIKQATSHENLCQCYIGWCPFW
row,Structure (SMILES),IC50
1,"C[C@H]1COCCN1c1cc(CS(=O)(=O)CC(N)=O)nc(-c2ccc(NC(=O)N(C)C)cc2)n1 [Example 17, 2-[[2-[4-(Dimethylcarbamoylamino)phenyl]-6-[(3S)-3-methylmorpholin-4-yl]pyrimidin-4-yl]methylsulfonyl]acetamide]",1100 nM
2,"CNC(=O)Nc1ccc(-c2nc(CO)cc(N3CCOC[C@@H]3C)n2)cc1 [Example 18, 1-[4-[4-(Hydroxymethyl)-6-[(3S)-3-methylmorpholin-4-yl]pyrimidin-2-yl]phenyl]-3-methyl-urea]",120 nM
3,"CNC(=O)Nc1ccc(-c2nc(CS(=O)(=O)C3CCCCC3)cc(N3CCOC[C@@H]3C)n2)cc1 [Example 19, 1-[4-[4-(Cyclohexylsulfonylmethyl)-6-[(3S)-3-methylmorpholin-4-yl]pyrimidin-2-yl]phenyl]-3-methyl-urea]",250 nM
4,"CNC(=O)Nc1ccc(-c2nc(CS(=O)(=O)c3ccccc3)cc(N3CCOC[C@@H]3C)n2)cc1 [Example 19a, 1-[4-[4-(benzenesulfonylmethyl)-6-[(3S)-3-methylmorpholin-4-yl]pyrimidin-2-yl]phenyl]-3-methyl-urea]",4.7 nM
5,"CNC(=O)Nc1ccc(-c2nc(CS(=O)(=O)c3ccc(F)cc3)cc(N3CCOC[C@@H]3C)n2)cc1 [Example 19b, 1-[4-[4-[(4-fluorophenyl)sulfonylmethyl]-6-[(3S)-3-methylmorpholin-4-yl]pyrimidin-2-yl]phenyl]-3-methyl urea]",33 nM
6,"CNC(=O)Nc1ccc(-c2nc(CS(=O)(=O)c3ccc(NC(C)=O)cc3)cc(N3CCOC[C@@H]3C)n2)cc1 [Example 19c, N-[4-[[2-[4-(methylcarbamoylamino)phenyl]-6-[(3S)-3-methylmorpholin-4-yl]pyrimidin-4-yl]methylsulfonyl]phenyl]acetamide]",22 nM
7,"CNC(=O)Nc1ccc(-c2nc(CS(=O)(=O)C(C)C)cc(N3CCOC[C@@H]3C)n2)cc1 [Example 19d, 3-methyl-1-[4-[4-[(3S)-3-methylmorpholin-4-yl]-6-(propan-2-ylsulfonylmethyl)pyrimidin-2-yl]phenyl]urea]",66 nM
8,"CNC(=O)Nc1ccc(-c2nc(CS(=O)(=O)CCO)cc(N3CCOC[C@@H]3C)n2)cc1 [Example 19e, 1-[4-[4-(2-hydroxyethylsulfonylmethyl)-6-[(3S)-3-methylmorpholin-4-yl]pyrimidin-2-yl]phenyl]-3-methyl-urea]",11 nM
9,"CNC(=O)Nc1ccc(-c2nc(CS(=O)(=O)c3ccccc3)cc(N3CCOCC3)n2)cc1 [Example 20, 3-[4-[4-(Benzenesulfonylmethyl)-6-morpholin-4-yl-pyrimidin-2-yl]phenyl]-1-methyl-urea]",43 nM
10,"CNC(=O)Nc1ccc(-c2nc(N3CCOCC3)cc(C(C)(C)S(C)(=O)=O)n2)cc1 [Example 21, 3-Methyl-1-[4-[4-(2-methylsulfonylpropan-2-yl)-6-morpholin-4-yl-pyrimidin-2-yl]phenyl]urea]",50 nM

# The next lines start with the values.
row,IC50,Structure (SMILES)
1,150 nM,"CCNC(=O)Nc1ccc(-c2nc(CS(=O)(=O)c3ccccc3)cc(N3CCOCC3)n2)cc1 [Example 20a, 3-[4-[4-(benzenesulfonylmethyl)-6-morpholin-4-yl-pyrimidin-2-yl]phenyl]-1-ethyl-urea]"
2,170 nM,"O=C(Nc1ccc(-c2nc(CS(=O)(=O)c3ccccc3)cc(N3CCOCC3)n2)cc1)NC1CC1 [Example 20b, 1-[4-[4-(benzenesulfonylmethyl)-6-morpholin-4-yl-pyrimidin-2-yl]phenyl]-3-cyclopropyl-urea]"
3,1000 nM,"CN(C)CCNC(=O)Nc1ccc(-c2nc(CS(=O)(=O)c3ccccc3)cc(N3CCOCC3)n2)cc1 [Example 20c, 3-[4-[4-(benzenesulfonylmethyl)-6-morpholin-4-yl-pyrimidin-2-yl]phenyl]-1-(2-dimethylaminoethyl)urea]"
4,1600 nM,"CN1CCC(NC(=O)Nc2ccc(-c3nc(CS(=O)(=O)c4ccccc4)cc(N4CCOCC4)n3)cc2)CC1 [Example 20d, 3-[4-[4-(benzenesulfonylmethyl)-6-morpholin-4-yl-pyrimidin-2-yl]phenyl]-1-(1-methyl-4-piperidyl)urea]"
5,2100 nM,"COCCNC(=O)Nc1ccc(-c2nc(CS(=O)(=O)c3ccccc3)cc(N3CCOCC3)n2)cc1 [Example 20e, 3-[4-[4-(benzenesulfonylmethyl)-6-morpholin-4-yl-pyrimidin-2-yl]phenyl]-1-(2-methoxyethyl)urea]"
6,35 nM,"CCNC(=O)Nc1ccc(-c2nc(CS(=O)(=O)c3ccccc3)cc(N3CCOC[C@@H]3C)n2)cc1 [Example 20f, 3-[4-[4-(benzenesulfonylmethyl)-6-[(3S)-3-methylmorpholin-4-yl]pyrimidin-2-yl]phenyl]-1-ethyl-urea]"
7,39 nM,"C[C@H]1COCCN1c1cc(CS(=O)(=O)c2ccccc2)nc(-c2ccc(NC(=O)NC3CC3)cc2)n1 [Example 20g, 1-[4-[4-(benzenesulfonylmethyl)-6-[(3S)-3-methylmorpholin-4-yl]pyrimidin-2-yl]phenyl]-3-cyclopropyl-urea]"
8,440 nM,"C[C@H]1COCCN1c1cc(CS(=O)(=O)c2ccccc2)nc(-c2ccc(NC(=O)NCCN(C)C)cc2)n1 [Example 20h, 1-[4-[4-(benzenesulfonylmethyl)-6-[(3S)-3-methylmorpholin-4-yl]pyrimidin-2-yl]phenyl]-3-(2-dimethylaminoethyl)urea]"
9,700 nM,"C[C@H]1COCCN1c1cc(CS(=O)(=O)c2ccccc2)nc(-c2ccc(NC(=O)NC3CCN(C)CC3)cc2)n1 [Example 20i, 1-[4-[4-(benzenesulfonylmethyl)-6-[(3S)-3-methylmorpholin-4-yl]pyrimidin-2-yl]phenyl]-3-(1-methyl-4-piperidyl)urea]"
10,750 nM,"COCCNC(=O)Nc1ccc(-c2nc(CS(=O)(=O)c3ccccc3)cc(N3CCOC[C@@H]3C)n2)cc1 [Example 20j, 1-[4-[4-(benzenesulfonylmethyl)-6-[(3S)-3-methylmorpholin-4-yl]pyrimidin-2-yl]phenyl]-3-(2-methoxyethyl)urea]"
11,36 nM,"CNC(=O)Nc1ccc(-c2nc(CS(=O)(=O)C(C)C)cc(N3CCOCC3)n2)cc1 [Example 20k, 3-methyl-1-[4-[4-morpholin-4-yl-6-(propan-2-ylsulfonylmethyl)pyrimidin-2-yl]phenyl]urea]"
12,74 nM,"CCNC(=O)Nc1ccc(-c2nc(CS(=O)(=O)C(C)C)cc(N3CCOCC3)n2)cc1 [Example 20l, 1-ethyl-3-[4-[4-morpholin-4-yl-6-(propan-2-ylsulfonylmethyl)pyrimidin-2-yl]phenyl]urea]"
13,81 nM,"CC(C)S(=O)(=O)Cc1cc(N2CCOCC2)nc(-c2ccc(NC(=O)NC3CC3)cc2)n1 [Example 20m, 3-cyclopropyl-1-[4-[4-morpholin-4-yl-6-(propan-2-ylsulfonylmethyl)pyrimidin-2-yl]phenyl]urea]"
14,860 nM,"CC(C)S(=O)(=O)Cc1cc(N2CCOCC2)nc(-c2ccc(NC(=O)NCCN(C)C)cc2)n1 [Example 20n, 3-(2-dimethylaminoethyl)-1-[4-[4-morpholin-4-yl-6-(propan-2-ylsulfonylmethyl)pyrimidin-2-yl]phenyl]urea]"
15,1300 nM,"CC(C)S(=O)(=O)Cc1cc(N2CCOCC2)nc(-c2ccc(NC(=O)NC3CCN(C)CC3)cc2)n1 [Example 20o, 3-(1-methyl-4-pipendyl)-1-[4-[4-morpholin-4-yl-6-(propan-2-ylsulfonylmethyl)pyrimidin-2-yl]phenyl]urea]"
16,910 nM,"COCCNC(=O)Nc1ccc(-c2nc(CS(=O)(=O)C(C)C)cc(N3CCOCC3)n2)cc1 [Example 20p, 3-(2-methoxyethyl)-1-[4-[4-morpholin-4-yl-6-(propan-2-ylsulfonylmethyl)pyrimidin-2-yl]phenyl]urea]"
17,39 nM,"CCNC(=O)Nc1ccc(-c2nc(CS(=O)(=O)C(C)C)cc(N3CCOC[C@@H]3C)n2)cc1 [Example 20q, 1-ethyl-3-[4-[4-[(3S)-3-methylmorpholin-4-yl]-6-(propan-2-ylsulfonylmethyl)pyrimidin-2-yl]phenyl]urea]"
18,94 nM,"CC(C)S(=O)(=O)Cc1cc(N2CCOC[C@@H]2C)nc(-c2ccc(NC(=O)NC3CC3)cc2)n1 [Example 20r, 3-cyclopropyl-1-[4-[4-[(3S)-3-methylmorpholin-4-yl]-6-(propan-2-ylsulfonylmethyl)pyrimidin-2-yl]phenyl]urea]"
19,620 nM,"CC(C)S(=O)(=O)Cc1cc(N2CCOC[C@@H]2C)nc(-c2ccc(NC(=O)NCCN(C)C)cc2)n1 [Example 20s, 3-(2-dimethylaminoethyl)-1-[4-[4-[(3S)-3-methylmorpholin-4-yl]-6-(propan-2-ylsulfonylmethyl)pyrimidin-2-yl]phenyl]urea]"
20,600 nM,"CC(C)S(=O)(=O)Cc1cc(N2CCOC[C@@H]2C)nc(-c2ccc(NC(=O)NC3CCN(C)CC3)cc2)n1 [Example 20t, 1-[4-[4-[(3S)-3-methylmorpholin-4-yl]-6-(propan-2-ylsulfonylmethyl)pyrimidin-2-yl]phenyl]-3-(1-methyl-4-piperidyl)urea]"
21,270 nM,"COCCNC(=O)Nc1ccc(-c2nc(CS(=O)(=O)C(C)C)cc(N3CCOC[C@@H]3C)n2)cc1 [Example 20u, 3-(2-methoxyethyl)-1-[4-[4-[(3S)-3-methylmorpholin-4-yl]-6-(propan-2-ylsulfonylmethyl)pyrimidin-2-yl]phenyl]urea]"
22,730 nM,"CCNC(=O)Nc1ccc(-c2nc(N3CCOCC3)cc(C(C)(C)S(C)(=O)=O)n2)cc1 [Example 21a, 1-ethyl-3-[4-[4-(2-methylsulfonylpropan-2-yl)-6-morpholin-4-yl-pyrimidin-2-yl]phenyl]urea]"
